Source: patent US20120178666A1 (SHIRE LLC, priority 2009, published 2012)

Legend:
[1] = Comparative pharmacokinetic screening study of guanfacine prodrugs in the monkey; conditions: oral gavage
Protocol: Blood samples were taken on 4 sampling occasions at various times up to 6 hours after administration and submitted to analysis for the parent drug and prodrug using a qualified LC-MS-MS assay.

[2] = Prodrug stability in simulated gastric fluid (USP); conditions: 37° C.
Protocol: (§1) The remaining concentrations of the prodrugs were then assayed by HPLC.

[3] = Prodrug stability in simulated intestinal fluid (USP); conditions: 37° C.
Protocol: as §1

| SMILES | prodrug levels in plasma (in words) [1] | % prodrug remaining following incubation for: 1 h in simulated gastric fluid pH 1.1 [2] | % prodrug remaining following incubation for: 2 h in simulated intestinal fluid pH 6.8 [3] |
| --- | --- | --- | --- |
| CN(CC(=O)O)C(=O)NC(=N)NC(=O)Cc1c(Cl)cccc1Cl [Compound 9, Guanfacine Sarcosine Urea] | high prodrug levels | – | – |
| C[C@@H](N)C(=O)N[C@@H](CCC(=O)NC(=N)NC(=O)Cc1c(Cl)cccc1Cl)C(=O)O [Compound 41, (R)-Alanine-(S)-γ-Glutamate(Guanfacine) Amide] | detectable prodrug levels in plasma | 70% | 83% |
| N=C(NC(=O)CCCNC(=O)[C@@H]1CCC(=O)N1)NC(=O)Cc1c(Cl)cccc1Cl [Compound 23, Guanfacine (GABA-(S)-Pyroglutamic acid) Amide] | – | 98% | 78% |
| CCC(C)[C@@H](N)C(=O)NCCCC(=O)NC(=N)NC(=O)Cc1c(Cl)cccc1Cl (stereo partly drawn) [Compound 50, Guanfacine (GABA-(R)-Isoleucine) Amide] | – | 85% | 81% |
| CC(C)(COC(=O)NC(=N)NC(=O)Cc1c(Cl)cccc1Cl)[C@@H](O)C(=O)NCCC(=O)O [Compound 68, Guanfacine Pantothenic acid Carbamate] | – | 86% | 75% |
| N=C(NC(=O)CC[C@H](NC(=O)[C@H](N)Cc1ccc(O)cc1)C(=O)O)NC(=O)Cc1c(Cl)cccc1Cl [Compound 45, Guanfacine-(S)-γ-Glutamate-(R)-Tyrosine Amide] | – | 74% | 91% |
| N=C(NC(=O)CC[C@H](NC(=O)[C@H](N)CO)C(=O)O)NC(=O)Cc1c(Cl)cccc1Cl [Compound 47, (R)-Serine-(S)-γ-Glutamate(Guanfacine) Amide] | – | 72% | 89% |
| CC(C)[C@H](N)C(=O)N[C@@H](COC(=O)NC(=N)NC(=O)Cc1c(Cl)cccc1Cl)C(=O)O [Compound 17, (S)-Valine-(S)-Serine(Guanfacine) Carbamate] | total absence of prodrug in the plasma | 93% | 78% |
| CC(C)[C@H](NC(=O)CC(C)(C)CC(=O)NC(=N)NC(=O)Cc1c(Cl)cccc1Cl)C(=O)O [Compound 33, Guanfacine 3,3 dimethylglutaryl (Valine) Amide] | – | 79% | 99% |
| N=C(NC(=O)CC[C@H](NC(=O)[C@@H]1CCC(=O)N1)C(=O)O)NC(=O)Cc1c(Cl)cccc1Cl [Compound 6, (S)-Pyroglutamic acid-(S)-γ-Glutamate (Guanfacine) Amide] | – | 81% | 98% |
| N=C(NC(=O)Cc1c(Cl)cccc1Cl)NC(=O)c1ccc(N)cc1 [Compound 52, Guanfacine PABA Amide] | – | 84% | 97% |
| CC(C)[C@@H](NC(=O)COC(=O)NC(=N)NC(=O)Cc1c(Cl)cccc1Cl)C(=O)O [Compound 30, Guanfacine (glycolyl-(R)-Valine) Carbamate] | – | 77% | 160% |
| CC(C)[C@@H](N)C(=O)NCCC(=O)NC(=N)NC(=O)Cc1c(Cl)cccc1Cl [Compound 11, Guanfacine β-Alanine-(R)-Valine Amide] | detectable prodrug levels in plasma | 79% | – |
| CC(C)[C@@H](NC(=O)c1ccc(N)cc1)C(=O)NC(=N)NC(=O)Cc1c(Cl)cccc1Cl [Compound 55, Guanfacine (R)-Valine-PABA Amide] | – | 65% | 91% |
| CNCC(=O)N[C@@H](CCC(=O)NC(=N)NC(=O)Cc1c(Cl)cccc1Cl)C(=O)O [Compound 7, Sarcosine-(S)-γ-Glutamate-Guanfacine Amide] | – | 79% | 66% |
| NC(=O)CC[C@@H]1N=C(NC(=O)Cc2c(Cl)cccc2Cl)NC1=O [Compound 38, Guanfacine-(S)-Glutamine Cyclic adduct] | – | 70% | 87% |
| O=C1CCN=C(NC(=O)Cc2c(Cl)cccc2Cl)N1 [Compound 34, Guanfacine β Alanine Cyclic adduct] | – | 51% | 91% |
| N=C(NC(=O)Cc1c(Cl)cccc1Cl)NC(=O)OC[C@H](NC(=O)[C@@H]1CCC(=O)N1)C(=O)O [Compound 16, (S)-Pyroglutamic acid-(S)-Serine(Guanfacine) Carbamate] | – | 78% | 95% |
| N=C(NC(=O)CC[C@H](NC(=O)[C@H](N)CCC(N)=O)C(=O)O)NC(=O)Cc1c(Cl)cccc1Cl [Compound 46, (R)-Glutamine-(S)-γ-Glutamate(Guanfacine) Amide] | – | 61% | 81% |
| N=C(NC(=O)Cc1c(Cl)cccc1Cl)NC(=O)Oc1ccc(C[C@H](N)C(=O)O)cc1 [Compound 13, (S)-Tyrosine-(Guanfa ine) Carbamate] | – | 74% | 81% |
| CC(C)[C@H](N)C(=O)N[C@H](CCC(=O)NC(=N)NC(=O)Cc1c(Cl)cccc1Cl)C(=O)O [Compound 32, (S)-Valine-(R)-γ-Glutamate (Guanfacine) Amide] | – | 93% | 84% |
| CC(C)[C@H](NC(=O)COC(=O)NC(=N)NC(=O)Cc1c(Cl)cccc1Cl)C(=O)O [Compound 29, Guanfacine (glycolyl-(S)-Valine) Carbamate] | – | 80% | 99% |
